Laboratory results: patent US20110021567A1, “PREPARATION OF LENALIDOMIDE” (DR. REDDY'S LABORATORIES LTD., priority 2008, published 2011)

Assay: storage stability of the amorphous form (material remains amorphous)
Type: physicochemical
Settings: five days at 0-5° C., packaged in a polyethylene bag

physical form on storage: remains amorphous
Compound: Nc1cccc2c1CN(C1CCC(=O)NC1=O)C2=O (stereo not shown) [Example 8, 3-(4-amino-1-oxo-1,3-dihydro-2H-isoindol-2-yl)piperidine-2,6-dione]
